Laboratory results taken from BindingDB's records for patent US20240109853 (Shanghai Yao Yuan Biotechnology Co., 2024).
Several values for one entry are separate records, joined by “and”; a condition that tells them apart may be missing. Equal values may be shown once.

Target: Alpha-protein kinase 1 (Homo sapiens, UniProt Q96QP1)
Test: ALPK1 In Vitro Kinase Assay
Experimental: ALPK1 kinase activity was measured in an in vitro assay using ADP-Heptose as the ALPK1 ligand and activator of its kinase activity and TIFA protein as the ALPK1 phosphorylation substrate. Since phosphorylated TIFA proteins oligomerize, Homogeneous Time-Resolved Fluorescence (HTRF) was used to measure protein: protein interaction between HA-tagged TIFA proteins as an indicator of TIFA phosphorylation. In brief, dose-response studies were performed with […] in 384-well assay plates. Each well contained 0.1 mg TIFA, ALPK1 (2 nM final concentration in reaction mixture) and kinase buffer (100 mM of HEPES pH 7.4, 4 mM DTT, 40 mM MgCl2, 20 mM of β-Glycerol phosphate disodium salt, 0.4 mM of Na3VO4, 0.16 mg/mL). Titrations of the test compounds were prepared in dimethylsulphoxide (DMSO). The reaction was initiated by addition of ATP and ADP-Heptose.

Sequence of Alpha-protein kinase 1 (Q96QP1 whole entry): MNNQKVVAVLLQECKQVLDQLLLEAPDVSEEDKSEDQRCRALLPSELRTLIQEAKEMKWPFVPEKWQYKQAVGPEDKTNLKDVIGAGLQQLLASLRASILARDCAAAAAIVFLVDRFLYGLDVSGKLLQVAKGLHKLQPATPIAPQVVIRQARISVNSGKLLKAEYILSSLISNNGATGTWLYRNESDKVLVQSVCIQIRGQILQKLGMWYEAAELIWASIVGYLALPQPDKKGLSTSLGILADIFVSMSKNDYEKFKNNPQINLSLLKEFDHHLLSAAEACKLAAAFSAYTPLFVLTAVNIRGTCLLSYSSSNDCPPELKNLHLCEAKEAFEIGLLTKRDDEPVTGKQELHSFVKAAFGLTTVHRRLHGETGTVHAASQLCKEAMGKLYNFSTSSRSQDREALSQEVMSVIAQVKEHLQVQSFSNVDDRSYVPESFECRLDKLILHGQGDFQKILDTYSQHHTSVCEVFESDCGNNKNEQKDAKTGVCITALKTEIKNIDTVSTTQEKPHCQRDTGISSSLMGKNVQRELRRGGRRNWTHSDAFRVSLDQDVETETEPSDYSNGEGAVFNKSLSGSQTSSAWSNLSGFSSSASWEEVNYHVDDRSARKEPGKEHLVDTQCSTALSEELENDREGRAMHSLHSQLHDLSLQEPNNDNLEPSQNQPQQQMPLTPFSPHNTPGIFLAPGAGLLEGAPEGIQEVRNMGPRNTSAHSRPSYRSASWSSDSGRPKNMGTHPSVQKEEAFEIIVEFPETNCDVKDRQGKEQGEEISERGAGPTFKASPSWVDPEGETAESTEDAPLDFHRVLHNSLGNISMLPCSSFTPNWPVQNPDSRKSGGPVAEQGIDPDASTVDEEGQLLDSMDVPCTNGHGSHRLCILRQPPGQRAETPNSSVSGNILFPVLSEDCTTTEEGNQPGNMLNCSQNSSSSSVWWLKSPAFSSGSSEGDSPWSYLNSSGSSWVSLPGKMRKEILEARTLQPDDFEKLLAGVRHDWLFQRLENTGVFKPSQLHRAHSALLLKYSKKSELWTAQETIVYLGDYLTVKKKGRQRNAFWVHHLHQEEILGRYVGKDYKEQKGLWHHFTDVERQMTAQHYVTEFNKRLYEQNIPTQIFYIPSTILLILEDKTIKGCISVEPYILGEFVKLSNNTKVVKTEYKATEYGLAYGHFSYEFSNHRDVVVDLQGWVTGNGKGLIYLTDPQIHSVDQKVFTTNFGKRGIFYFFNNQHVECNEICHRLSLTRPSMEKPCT

Row | SMILES | IC50
1 | C#CC(C)(c1ccc(Cl)cc1)c1csc(NC(=O)N2CC(N)C2)n1 (configuration not stated) [US20240109853, Compound A275] | 503 nM and 246 nM
2 | C#C[C@](C)(c1ccc(Cl)cc1)c1csc(NC(=O)NCC(C)O)n1 (some centres not stated) [US20240109853, Compound A316] | 421 nM and 534 nM
3 | C#C[C@@](C)(c1ccc(Cl)cc1)c1nc(NC(=O)NCCO)sc1Cl [US20240109853, Compound A247] | 408 nM
4 | C#C[C@](C)(c1ccc(Cl)cc1)c1nc(NC(=O)NCCO)sc1Cl [US20240109853, Compound A248] | 1290 nM
5 | C#C[C@](C)(c1ccc(Cl)cc1)c1csc(NC(=O)NC(C)CO)n1 (some centres not stated) [US20240109853, Compound A314] | 261 nM and 81 nM
6 | C#C[C@@](C)(c1ccc(Cl)cc1)c1csc(NC(=O)NC(C)CO)n1 (some centres not stated) [US20240109853, Compound A312] | 545 nM and 614 nM
7 | C#CC(C)(c1ccc(Cl)cc1)c1csc(NC(=N)N)n1 (configuration not stated) [US20240109853, Compound A276] | 345 nM
8 | COc1ccc(C(C)(C)c2csc(NC(=O)c3ccc(N4CC5CC(C4)N5)cc3)n2)cc1 [US20240109853, Compound B048] | 73 nM
9 | C#C[C@@](C)(c1ccc(Cl)cc1)c1csc(NC(=O)NCC(C)O)n1 (some centres not stated) [US20240109853, Compound A317] | 85 nM and 156 nM
10 | CC(C)(c1ccc(Br)cc1)c1csc(NC(=O)NCc2ccc(C3CCNCC3)c(F)c2)n1 [US20240109853, Compound A222] | 56 nM
11 | COc1ccc(C(C)(C)c2csc(NC(=O)NCc3cc(F)c(C4CCNCC4)c(F)c3)n2)cc1 [US20240109853, Compound A151] | 43 nM
12 | CC(C)(c1ccc(Br)cc1)c1csc(NC(=O)NCc2ccc(N3CCNCC3)c(Br)c2)n1 [US20240109853, Compound A097] | 87 nM
